# Experiments:
# PD-1/PD-L1 = PD-1/PD-L1 (Homo sapiens, UniProt Q9NZQ7); test: PD-1/PD-L1 biochemical protein-protein interaction assay (ALPHA); type: binding; conditions: 0.3 nM His tagged PD-L1, 2.5 nM biotinylated Fc-PD-1, 60 minutes at 25° C., read-out: IC50 PD-L1-PD-1 Alpha IC50-mono PD-L1-fcP-D1
# Summary of the method: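 Final concentrations 0.3 nM His-tagged PD-L1 and 2.5 nM biotinylated Fc-PD-1 (extracellular domains) were reacted with compound for 60 min at 25° C in pH 7.4 Hepes/NaCl/EDTA/Tween/BSA buffer. Binding was then detected by ALPHA beads, and IC50 values were taken from four-parameter curve fitting.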
# PD-1/PD-L1 interaction = biological target: T1, PD-1/PD-L1 interaction (Homo sapiens, UniProt Q9NZQ7); test: PD-1/PD-L1 NFAT reporter co-culture assay; type: cell-based; conditions: Jurkat PD-1 NFAT-luciferase cells co-cultured with aAPC-PD-L1 CHO cells, 6 hrs at 37° C.; read-out: EC50 NFAT Luciferase
# T1 construct: expressed in transfected cells; host or cells: CHO cells (aAPC-PD-L1) co-cultured with Jurkat cells overexpressing PD-1 and an NFAT-luciferase reporter
# T1 sequence (Q9NZQ7 19-290): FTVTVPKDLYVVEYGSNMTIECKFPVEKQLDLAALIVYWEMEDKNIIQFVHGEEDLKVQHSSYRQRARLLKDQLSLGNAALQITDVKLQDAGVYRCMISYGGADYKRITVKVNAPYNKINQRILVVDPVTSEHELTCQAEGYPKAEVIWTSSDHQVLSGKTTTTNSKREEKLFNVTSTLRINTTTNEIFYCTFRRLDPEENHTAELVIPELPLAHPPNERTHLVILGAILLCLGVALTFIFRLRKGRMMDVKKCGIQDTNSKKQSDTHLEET
# Summary of the method: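 Compounds are scored by restoration of NFAT-luciferase signal in PD-1-expressing Jurkat cells cultured 6 h at 37 °C on CHO cells presenting anti-CD3 and PD-L1; EC50 values derive from four-parameter curve fitting.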
# PD-L1 = biological target: T2, PD-L1 (Homo sapiens, UniProt Q9NZQ7); test: PD-L1/PD-L1 dimerization biochemical protein-protein interaction assay (ALPHA); type: binding; conditions: compound-induced PD-L1 dimerization, head prints '1 nM' (0.5 nM His-tagged PD-L1 and 0.5 nM FLAG-tagged PD-L1), read-out: AC50 PDL1 Dimer Alpha 1 nM
# T2 construct: determine if they can specifically dimerize the extracellular domains of PD-L1
# T2 sequence (Q9NZQ7 19-238 limits assumed): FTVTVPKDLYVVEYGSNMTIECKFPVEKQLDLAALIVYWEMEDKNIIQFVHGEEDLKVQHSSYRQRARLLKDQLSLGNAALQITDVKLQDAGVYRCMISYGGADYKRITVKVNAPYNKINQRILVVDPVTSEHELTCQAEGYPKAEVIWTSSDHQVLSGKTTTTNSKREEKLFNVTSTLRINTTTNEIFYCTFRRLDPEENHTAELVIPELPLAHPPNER
# T2 sequence (Q9NZQ7 19-238 limits assumed): as above
# Summary of the method: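 ALPHA proximity assay of compound-induced dimerization of 0.5 nM His-tagged and 0.5 nM FLAG-tagged PD-L1 extracellular domains in Hepes pH 7.4 buffer, 2 h at 25 °C. Anti-His acceptor then anti-FLAG donor beads, 60 min each; AC50 from four-parameter fit.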
# Chain of PD-1/PD-L1 (Q9NZQ7 19-238 limits assumed): as above
SMILES,IC50 (PD-1/PD-L1) [nM],EC50 (PD-1/PD-L1 interaction) [nM],AC50 (PD-L1) [nM]
Cc1c(COc2cc(OCc3cncc(C#N)c3)c(CN[C@@](C)(CO)C(=O)O)cc2Cl)cccc1-c1cc(F)cc(-c2ccc(CN(C)C)cc2)c1Cl [Example 457],0.064,1560,49.3
COc1nc(-c2ccc(-c3cccc(-c4ccc(CNC[C@@H]5CCC(=O)N5)c(OC)n4)c3Cl)s2)ccc1CNC[C@@H]1CCC(=O)N1 [Example 601],5.27,748,1130
Cc1c(COc2cc(OCc3cncc(C#N)c3)c(CNC[C@@H](O)CC(=O)O)cc2Cl)cc(F)cc1-c1cccc(-c2ccc(OCCN3CC[C@@H](O)C3)cc2)c1C [Example 446],0.453,315,458
COc1cc(-c2cccc(-c3cccc(COc4nc(OCc5cncc(C#N)c5)c(CNC[C@@H]5CCC(=O)N5)cc4Br)c3Cl)c2Cl)ccc1CNC[C@@H]1CCC(=O)N1 [Example 541],0.641,93,70.4
"Cc1c(COc2cc(OCc3cncc(C#N)c3)c(CNC[C@@H](O)CC(=O)O)cc2Cl)cccc1-c1cccc(-c2cn3cc(CNC[C@@H](O)CC(=O)O)ccc3n2)c1C [Example 394, (S)-4-(((2-(3′-((4-((((S)-3-carboxy-2-hydroxypropyl)amino)methyl)-2-chloro-5-((5-cyanopyridin-3-yl)methoxy)phenoxy)methyl)-2,2′-dimethyl-[1,1′-biphenyl]-3-yl)imidazo[1,2-a]pyridin-6-yl)methyl)amino)-3-hydroxybutanoic acid]",0.102,435,130
COc1nc(O[C@H]2CCc3c(-c4cccc(-c5cnc(CN[C@@H]6CCC[C@@H]6O)c(OC)n5)c4Cl)cccc32)c(Cl)cc1CN[C@@H]1CCC[C@@H]1O [Example 643],0.734,89,39
"Cc1c(COc2cc(OCc3cncc(C#N)c3)c(CN(C)C)cc2Cl)cccc1-c1cccc(-c2ccc(CN(C)C)nc2)c1C [Example 382, 5-((4-chloro-2-((dimethylamino)methyl)-5-((3′-(6-((dimethylamino)methyl)pyridin-3-yl)-2,2′-dimethyl-[1,1′-biphenyl]-3-yl)methoxy)phenoxy)methyl)nicotinonitrile]",0.304,1230,334
N#CCOc1cc(-c2cccc(-c3cccc(-c4ccc(CNC[C@@H]5CCC(=O)N5)c(OCC#N)c4)c3Cl)c2Cl)ccc1CNC[C@@H]1CCC(=O)N1 [Example 463],0.159,123,71.3
COc1nc(O[C@H]2CCc3c(-c4cccc(-c5cnc6c(CNC[C@@H]7CCC(=O)N7)cn(C)c6n5)c4Cl)cccc32)c(Cl)cc1CN1CCC[C@@H](C(=O)O)C1 [Example 526],0.064,110,73.6
Cc1c(COc2cc(OCc3cncc(C(N)=O)c3)c(CN[C@@](C)(CO)C(=O)O)cc2Cl)cccc1-c1cccc(-c2ccc3c(c2)[C@@H](O)C[C@H]3N)c1C [Example 470],0.096,217,127
N#Cc1cc(C#N)cc(COc2nc(OCc3cccc(-c4cccc(-c5ccc(CN6CC7(CCC(=O)N7)C6)cc5)c4Cl)c3Cl)c(Cl)cc2CNC[C@@H](O)CC(=O)O)c1 [Example 567],0.327,85,68.7
COc1nc(-c2cccc(-c3cccc(COc4cc(OCc5cncc(C#N)c5)c(CNC[C@@H](O)CC(=O)O)cc4Cl)c3C)c2C)ccc1C1=NCCN1 [Example 505],0.064,80,55
Cc1c(COc2cc(OCc3cncc(C#N)c3)c(CN[C@@](C)(CO)C(=O)O)cc2Cl)cccc1-c1cccc(-c2ccc(CNCCn3ccnn3)cc2)c1C [Example 580],0.215,200,231
Cc1c(COc2cc(OCc3cncc(C#N)c3)c(CNC[C@@H](O)CC(=O)O)cc2Cl)cccc1-c1cccc(-c2ccc(CNC[C@@H](O)CC(=O)O)c(SC(F)F)c2)c1C [Example 460],0.147,112,302
"Cc1c(COc2cc(OCc3cncc(C#N)c3)c(CN[C@](C)(CO)C(=O)O)cc2Cl)cccc1-c1cccc(-c2ccc(OCCNCCO)c(S(C)(=O)=O)c2)c1C [Example 310, (R)-2-((5-chloro-2-((5-cyanopyridin-3-yl)methoxy)-4-((4″-(2-((2-hydroxyethyl)amino)ethoxy)-2,2′-dimethyl-3″-(methylsulfonyl)-[1,1′:3′,1″-terphenyl]-3-yl)methoxy)benzyl)amino)-3-hydroxy-2-methylpropanoic acid]",0.069,215,121
COc1nc(-c2cccc(-c3cccc(-c4nc5cc(CNCCO)cc(OC)c5o4)c3Cl)c2Cl)ccc1CNCCO [Example 634],0.208,495,96.9
"Cc1c(-c2ccc(CN3CC[C@@H](O)C3)cc2)cccc1-c1cccc(-c2ccc(CNC[C@@H](O)CC(=O)O)c(OCCCC#N)c2)c1C [Example 324, (S)-4-(((3-(3-cyanopropoxy)-4′″-(((R)-3-hydroxypyrrolidin-1-yl)methyl)-2′,2″-dimethyl-[1,1′:3′,1″:3″,1′″-quaterphenyl]-4-yl)methyl)amino)-3-hydroxybutanoic acid]",0.505,894,1020
COc1nc(O[C@H]2CCc3c(-c4cccc(-c5cc(C)c(CNC[C@@H]6CCC(=O)N6)c(OC)n5)c4Cl)cccc32)c(Cl)cc1CN1CC(C(=O)O)C1 [Example 487],0.064,16,25.2
C[C@@](CO)(NCc1cc(Cl)c(OCc2cccc(-c3cccc(-c4ccc(CNC[C@@H]5CCC(=O)N5)cc4)c3Cl)c2Cl)nc1OCc1cc(C#N)cc(C#N)c1)C(=O)O [Example 577],0.064,16,9.73
"CC(C)(NCc1cc(Cl)c(O[C@H]2CCc3c(-c4cccc(-c5ccc(S(N)(=O)=O)cc5)c4Cl)cccc32)nc1OCc1cncc(C#N)c1)C(=O)O [Example 289, (S)-2-(((5-chloro-6-((4-(2-chloro-4′-sulfamoyl-[1,1′-biphenyl]-3-yl)-2,3-dihydro-1H-inden-1-yl)oxy)-2-((5-cyanopyridin-3-yl)methoxy)pyridin-3-yl)methyl)amino)-2-methylpropanoic acid]",0.075,70,≥ 10000

# The next lines start with the values.
IC50 (PD-1/PD-L1) [nM],EC50 (PD-1/PD-L1 interaction) [nM],AC50 (PD-L1) [nM],SMILES
0.221,51,78.5,COc1nc(-c2cccc(-c3cccc4c3CC[C@@H]4Oc3nc(OCC#N)c(CNC[C@@H]4CCC(=O)N4)cc3Cl)c2Cl)ccc1CNC[C@@H]1CCC(=O)N1 [Example 658]
0.064,10,5.36,COc1nc(-c2cccc(-c3cccc4c3CC[C@@H]4Oc3nc(OCc4cncc(C#N)c4)c(CN[C@@](C)(CO)C(=O)O)cc3Br)c2Cl)ccc1CNC[C@@H]1CCC(=O)N1 [Example 747]
0.064,44,9.53,COc1nc(-c2cccc(-c3cccc4c3CC[C@@H]4Oc3nc(OCc4cncc(C#N)c4)c(CN[C@@](C)(CO)C(=O)O)cc3Br)c2Cl)ccc1C1=NCCN1 [Example 744]
0.154,583,399,C[C@@](CO)(NCc1ccc(O[C@H]2CCc3c(-c4cccc(OCCCN5CC[C@@H](O)C5)c4Cl)cccc32)nc1OCc1cncc(C#N)c1)C(=O)O [Example 673]
0.064,41,9.65,C[C@@](CO)(NCc1cc(Cl)c(O[C@H]2CCc3c(-c4cccc(-c5ccc6c(c5)CC(N)C6)c4Cl)cccc32)nc1OCc1cncc(C#N)c1)C(=O)O (stereo partly drawn) [Example 795]
9.69,≥ 50000,≥ 10000,N#Cc1cncc(COc2cc(O[C@H]3CCc4c(-c5cccc(-c6ccc7sc(CNC[C@@H]8CCC(=O)N8)nc7c6)c5Cl)cccc43)c(Cl)cc2CNC[C@@H]2CCC(=O)N2)c1 [Example 801]
0.064,25,69.4,COc1nc(-c2cccc(-c3cccc4c3CC[C@@H]4Oc3nc(OC)c(CN4CC(C(=O)O)C4)cc3Cl)c2Cl)ccc1CN1CC2(CCC(=O)N2)C1 [Example 713]
0.297,41,29.5,COc1nc(O[C@H]2CCc3c(-c4cccc(-c5ccc(CNC[C@@H]6CCC(=O)N6)c(OCC#N)n5)c4Cl)cccc32)c(Cl)cc1CN[C@@H]1CCC[C@@H]1O [Example 651]
0.153,22,18.4,COc1nc(-c2cccc(-c3cccc4c3CC[C@@H]4Oc3nc(OC)c(CNC[C@@H]4CCC(=O)N4)cc3Br)c2Cl)ccc1CNC[C@@H]1CCC(=O)N1 [Example 736]
0.158,59,140,COc1nc(O[C@H]2CCc3c(-c4cccc(-c5cnc(CNC[C@@H]6CCC(=O)N6)c(OC)n5)c4Cl)cccc32)c(Cl)cc1CNC[C@@H]1CCC(=O)N1 [Example 652]
